Values joined by “and” are separate entries in the source; they are usually repeats but may differ in a detail not shown here. Equal entries are not always repeated.
Details: one skin biopsy 0.28 cm^2, 90 minutes

## C[C@]12CC[C@@H]3c4ccc(O)[14cH]c4CC[C@H]3[C@@H]1CC[C@@H]2O [E2-14C, Estradiol, 17 β-[4-^14C]]
10 μL/cm^2 in water-ethanol on tape stripped skin
  CPM: 1365 and 940 and 869
Counting efficiency 25%, tape stripped skin
  DPM: 5337 and 3760 and 3476
Tape stripped skin
  Total E2 (ng/Biopsy): 11.9 ng/Biopsy and 8.4 ng/Biopsy and 7.7 ng/Biopsy
  ng/Biopsy (E2-14C): 11.9 ng/Biopsy and 8.4 ng/Biopsy and 7.7 ng/Biopsy
  μCi/Biopsy: 0.002402 μCi/Biopsy and 0.001692 μCi/Biopsy and 0.001564 μCi/Biopsy

From patent US20260263350A1, “COMPOSITIONS” (Estrenue Pty Ltd, priority 2022, published 2026)
